Reference: US20130059314A1, “FRET-BASED METHOD FOR THE DETERMINATION OF PROTEIN PHOSPHATASE AND KINASE ACTIVITY” (priority 2010, published 2013)

Assays:
PP1/2A = experiment: FRET-based phosphatase activity assay in PP1/2A buffer; assay type: biochemical; conditions: FIG. 9
Source text: FIG. 8 is a graph showing that in the PP1A/2A buffer, a linear range of phosphatase activity not attributable to calcineurin activity was detected.
(§1) Okadaic acid is a known inhibitor if PP1/2A.

Calcineurin = experiment: FRET-based calcineurin activity assay with okadaic acid; assay type: biochemical; conditions: similar range of okadaic acid; FIG. 9
Experimental: as §1
2. Calcineurin activity was assessed by mixing equal parts lysate, RII or other peptide sample), and reacted for 5-10 mins at 30° C. Control reactions were included that contained known varying amounts of purified calcineurin to calculate a standard curve for each plate.
3. To stop the reaction, a solution of 10% acetyl nitrile and 0.01% acetic acid solution was added. This step was essential to reduce the pH of the reaction to below 3.5 and enable the binding of the titanium oxide beads to the target peptide.
4. FLUOR-titanium oxide beads were added with gentle shaking for 5 mins. Phosphorylated-peptides were retained on the beads producing a “shifted” TAMRA signal while non-phosphorylated peptides were unbound.
5. Reactions were neutralized with 0.35% ammonium hydroxide to return the pH to greater than 7 and the fluorescence of each sample will be read at 450 nm excitation/580 nm emission.
6. Calcineurin activity was then determined by calculating the slope and y-intercept of the standard curve and then extrapolating calcineurin activity from the fluorescence intensity.

SMILES: C=C1[C@@H](O)[C@@H]2O[C@]3(CC[C@H](/C=C/[C@@H](C)[C@@H]4CC(C)=C[C@@]5(O[C@H](C[C@@](C)(O)C(=O)O)CC[C@H]5O)O4)O3)CC[C@H]2O[C@@H]1[C@@H](O)C[C@H](C)[C@H]1O[C@@]2(CCCCO2)CC[C@H]1C [okadaic acid]
- phosphatase activity detected in the PP1/2A buffer, inhibition (PP1/2A): sensitive to inhibition with okadaic acid, in a dose-dependent fashion
- calcineurin activity, sensitivity to okadaic acid (Calcineurin): not sensitive to further reduction
